Test results reported in paper PMC7551886, “Antitumour Effects of Astaxanthin and Adonixanthin on Glioblastoma” (Marine Drugs, 2020).

Experiment: Body weight of mice during administration
Format: in vivo, mouse
Experimental: In the experiment of the murine orthotopic glioblastoma model, oral administration of each astaxanthin (10 and 30 mg/kg) and adonixanthin (10 and 30 mg/kg) was initiated 3 days after intracranial injection of GL261 cells and was continued for 10 days. In the experiment of the brain tissue absorption with oral astaxanthin or adonixanthin, after one week of adaptation, ICR mice were randomly divided into the following three groups: control group, astaxanthin group (50 mg/kg), and adonixanthin group (50 mg/kg). Mice were orally administered each reagent suspended in olive oil (5 mL/kg) by the daily single dose for 10 days. The control group was treated by olive oil alone (5 mL/kg).

## CC1=C(/C=C/C(C)=C/C=C/C(C)=C/C=C/C=C(C)/C=C/C=C(C)/C=C/C2=C(C)C(=O)[C@@H](O)CC2(C)C)C(C)(C)C[C@H](O)C1=O [Astaxanthin, astaxanthin]
10 days of administration
  changes in body weight: No significant changes
After 10 days of administration, vehicle 34.72 ± 2.05 g
  body weight of treated mice: 35.50 ± 1.95 g
